Laboratory results taken from the supplement of paper PMC7840683.

System: HepaRG
Test: LDH release cytotoxicity, % of total lysis control; higher = more cytotoxic
Settings: 48 h
In short: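 Duplicate wells of single-lot HepaRG cells, grown on collagen I-coated 96-well plates, received eight-point half-log series of test chemicals with 100 µM as the top concentration. Exposure lasted 48 h in serum-free induction medium with 0.5% DMSO, while total lysis wells received 0.1% Triton X. Resorufin fluorescence (CytoTox-ONE, Tecan Safire) was used to quantify LDH leaked into 50 µL of spent medium. Values for percent cytotoxicity were normalized to on-plate vehicle and total lysis controls and averaged across the duplicates.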

CCCCCOC(C)=O [Pentyl acetate]
Settings | LDH release cytotoxicity [%]
0.03162 µM | -10.9
0.1 µM | -10.5
0.3162278 µM | -10.2
1 µM | -11
3.16228 µM | -10.3
10 µM | -10.9
31.6228 µM | -10.3
100 µM | -10.02

CCCCC1CN(CC2CCOCC2)C(=O)OC12CCN(C1(C)CCN(C(=O)c3c(C)ncnc3C)CC1)CC2 (stereo not given)
Settings | LDH release cytotoxicity [%]
0.02846 µM | -1.26
0.09 µM | -1.45
0.284605 µM | -0.87
0.9 µM | -1.55
2.84605 µM | -1.48
9 µM | -1.68
28.4605 µM | -0.822
90 µM | -0.451

Oc1ccccc1O [1,2-Benzenediol]
Settings | LDH release cytotoxicity [%]
0.03162 µM | -1.86
0.1 µM | -1.713
0.3162278 µM | -1.94
1 µM | -2.41
3.16228 µM | -2.9
10 µM | -2.31
31.6228 µM | -1.42
100 µM | -0.0267

COc1ccccc1N [2-Anisidine]
Settings | LDH release cytotoxicity [%]
0.03162 µM | -1.27
0.1 µM | -0.978
0.3162278 µM | -0.111
1 µM | -0.865
3.16228 µM | -1.04
10 µM | 0.222
31.6228 µM | 0.835
100 µM | 4.39

O=C1C2CC=CCC2C(=O)N1SC(Cl)(Cl)Cl (stereo not given) [Captan]
Settings | LDH release cytotoxicity [%]
0.03115 µM | -0.761
0.0985 µM | -0.69
0.311484 µM | -1.02
0.985 µM | -1.31
3.11484 µM | -1.78
9.85 µM | -0.651
31.1484 µM | 0.632
98.5 µM | 27.6

CCCCC=O [Pentanal]
Settings | LDH release cytotoxicity [%]
0.031623 µM | 0.98
0.1 µM | -1.98
0.316228 µM | -0.995
1 µM | -1.67
3.16228 µM | -1.94
10 µM | -1.12
31.6228 µM | -1.6
100 µM | 0.803

CCCN(CC)CC1COC2(CCC(C(C)(C)C)CC2)O1 (stereo not given) [Spiroxamine]
Settings | LDH release cytotoxicity [%]
0.03162 µM | -0.782
0.1 µM | -1.02
0.3162278 µM | 0.233
1 µM | -0.292
3.16228 µM | 0.829
10 µM | 0.738
31.6228 µM | 1.08
100 µM | 1.62

CC(C)(C)CC(C)(C)c1ccc(O)cc1 [4-(1,1,3,3-Tetramethylbutyl)phenol]
Settings | LDH release cytotoxicity [%]
0.03162 µM | -1.49
0.1 µM | -1.58
0.3162278 µM | -1.966
1 µM | -1.68
3.16228 µM | -1.21
10 µM | -1.69
31.6228 µM | -0.473
100 µM | 42.9

COCC(C)N(C(=O)CCl)c1c(C)csc1C (stereo not given) [Dimethenamid]
Settings | LDH release cytotoxicity [%]
0.031623 µM | -1.73
0.1 µM | -3.31
0.316228 µM | -2.49
1 µM | -2.95
3.16228 µM | -2.64
10 µM | -3.81
31.6228 µM | -2.28
100 µM | 0.11

NS(=O)(=O)c1cc2c(cc1Cl)NCNS2(=O)=O [Hydrochlorothiazide]
Settings | LDH release cytotoxicity [%]
0.03162 µM | -0.499
0.1 µM | -1.26
0.3162278 µM | -1.458
1 µM | -1.51
3.16228 µM | -1.15
10 µM | -0.679
31.6228 µM | -1.51
100 µM | -0.146

CCOc1cccc(C2(N3CCN(c4ccccc4)CC3)CCC(C)CC2)c1 (stereo not given)
Settings | LDH release cytotoxicity [%]
0.03162 µM | -1.75
0.1 µM | -2.4
0.3162278 µM | -2.68
1 µM | -2.73
3.16228 µM | -2.22
10 µM | -2.03
31.6228 µM | -1.97
100 µM | -1.12

N=C1C=NN(c2ccccc2)C(=O)C1Cl (stereo not given) [Chloridazon]
Settings | LDH release cytotoxicity [%]
0.03162 µM | -1.49
0.1 µM | -1.35
0.3162278 µM | -0.939
1 µM | -1.3
3.16228 µM | -0.697
10 µM | -0.282
31.6228 µM | -0.579
100 µM | 2.76

CCOP(=S)(OCC)Oc1nc(Cl)c(Cl)cc1Cl [Chlorpyrifos]
Settings | LDH release cytotoxicity [%]
0.03162 µM | 0.564
0.1 µM | -0.761
0.3162278 µM | -1.52
1 µM | -1.1
3.16228 µM | -0.11
10 µM | -0.852
31.6228 µM | -0.29
100 µM | 0.964

O=C(Nc1ccc2[nH]ccc2c1)c1cc2cc(F)ccc2n1Cc1cccc(F)c1
Settings | LDH release cytotoxicity [%]
0.02625 µM | -0.0757
0.083 µM | -0.934
0.262469 µM | -1.53
0.83 µM | -0.536
2.62469 µM | -0.9
8.3 µM | -0.744
26.2469 µM | 8.37
83 µM | 93.9

COC(=O)c1ccccc1O [Methyl salicylate]
Settings | LDH release cytotoxicity [%]
0.03162 µM | -1.8
0.1 µM | -0.746
0.3162278 µM | -0.192
1 µM | -1.39
3.16228 µM | -1.33
10 µM | -0.567
31.6228 µM | -1.23
100 µM | 0.0854

CCC(=C(CC)c1ccc(O)cc1)c1ccc(O)cc1 [Diethylstilbestrol]
Settings | LDH release cytotoxicity [%]
0.031623 µM | -1.08
0.1 µM | -0.295
0.316228 µM | -1.31
1 µM | -2.18
3.16228 µM | -2.64
10 µM | -2.24
31.6228 µM | -0.817
100 µM | 0.74

CCOc1ccc2c(n1)C(=O)C(C(=O)NCc1ccccc1)C=N2 (stereo not given)
Settings | LDH release cytotoxicity [%]
0.03162 µM | -1.14
0.1 µM | -1.5
0.3162278 µM | -0.931
1 µM | -1.34
3.16228 µM | -0.884
10 µM | -0.792
31.6228 µM | -1.83
100 µM | -0.163

CC(=O)OCCC(C)C [3-Methylbutyl acetate]
Settings | LDH release cytotoxicity [%]
0.03162 µM | -1.61
0.1 µM | -1.62
0.3162278 µM | -0.432
1 µM | -1.89
3.16228 µM | -0.737
10 µM | 0.266
31.6228 µM | 1.88
100 µM | 2.4

Cc1c(F)c(F)c(COC(=O)C2C(C=C(Cl)C(F)(F)F)C2(C)C)c(F)c1F (stereo not given) [Tefluthrin]
Settings | LDH release cytotoxicity [%]
0.03162 µM | -0.665
0.1 µM | -0.785
0.3162278 µM | -1.49
1 µM | -1.6
3.16228 µM | -1.72
10 µM | -0.97
31.6228 µM | -0.478
100 µM | -0.883

CCCCOC(=O)c1ccccc1C(=O)OCc1ccccc1 [Benzyl butyl phthalate]
Settings | LDH release cytotoxicity [%]
0.03162 µM | -0.944
0.1 µM | -1.99
0.3162278 µM | -1.76
1 µM | -1.14
3.16228 µM | -1.707
10 µM | -2.01
31.6228 µM | -0.748
100 µM | 0.329
